Columns and labels:
Assay type in all cases: in vivo, human
[1] = test system: healthy male volunteers and healthy postmenopausal female volunteers; experiment: Phase 1 safety and tolerability, single and multiple ascending oral doses
Text: A total of 131 healthy, males aged 18 to 60 years and post-menopausal females aged 45 to 60 years, participated in this study.
(§1) The primary objectives of this study were to a) evaluate safety and tolerability of escalating doses of the compound of Formula I-11 administered as single and multiple oral doses in healthy male volunteers and healthy postmenopausal female volunteers and b) evaluate the PK parameters following escalating doses of the compound of Formula I-11 administered as single and multiple oral doses. The […] secondary objective of this study was to evaluate the pharmacodynamic (PD) parameters following escalating doses of the compound of Formula I-11 administered as single and multiple oral doses. This study was conducted in two parts.
Part 1 included 80 participants (10 cohorts of 8 participants each). Male and female participants who met the eligibility criteria were randomly assigned, in a ratio of 3:1 to receive the compound of Formula I-11 or matching placebo, N=6 and 2 per dose cohort, respectively. Participant enrollment included […] males and 12.5% females (postmenopausal). The IMP formulation used in Cohorts 1 through 6 was an oral capsule (doses of 1, 3, 10, 30, 100, or 300 mg capsule formulation). An oral liquid formulation was evaluated in Cohorts 7 through 10 (doses of 30, 100, 300 or 450 mg liquid formulation).
(§2) Participants in Part 1 received a single oral dose of the compound of Formula I-11 or placebo on Day 1 and serial PK samples were collected. Baseline assessments were performed on day −1 prior to dosing. Samples were collected for determination of pharmacodynamic parameters at pre-dose daily and up to 24 hours post dose (day 2) after a single oral dose of the compound of Formula I-11. Participants remained at the study site for observation for 24 hours post-dose through the PK sample collection on Day 2. Participants returned to the site for the 48, 72, and 120-hour post-dose sample collection on Days 3, 4, and 6. Safety was evaluated by a Safety Review Committee prior to escalation to the next dose level cohort.
Part 2, Cohorts 1 through 4, included 41 participants (4 cohorts of 10 participants each and 1 additional placebo participant in Cohort 1). Male and female participants who met the eligibility criteria were randomly assigned at a ratio of 4:1 to receive either the compound of Formula I-11 oral liquid formulation or matching placebo, N=8 and 2 per dose cohort respectively. Forty (97.6%) males and 1 (2.4%) female (placebo) participant were enrolled.
(§3) Participants in Part 2, Cohorts 1 through 3, received a daily oral dose of the compound of Formula I-11 (50, 100, or 200 mg liquid formulation respectively) or placebo for 7 days. A daily oral dose of the compound of Formula I-11 or placebo in participants in Part 2, Cohort 4 (350 mg liquid formulation) was planned for 14 days but was discontinued early in all subjects, either by the Investigator because of AEs, or by the Sponsor. A decision was made by the Sponsor to discontinue dosing of the entire cohort based on the frequency of AEs and laboratory abnormalities after Day 9. In Cohort 4, participants on the compound of Formula I-11 received daily oral dosing of 350 mg for up to 7 days; one placebo participant received daily oral dosing for 9 days. Samples were collected for determination of pharmacodynamic parameters at pre-dose daily and to 24 hours post dose (day 8) while on drug. Daily trough PK samples were collected for the determination of steady-state from Day 2 to Day 12 or 13. Participants returned to the site on Day 30 for an end-of-study visit. Safety was evaluated by a Safety Review Committee prior to escalation to the next dose level cohort.
Part 2, MAD Cohort 5 participants received either the compound of Formula I-11, 100 mg (n=8) or placebo (n=2) on Days 1, 2, 3, 4, 5, 6, 7. The last dose was administered on the morning of Day 7. […]

[2] = Pharmacokinetics after single and multiple oral doses
Text: as §1, §2
Participants in Part 2, Cohorts 1 through 3, received a daily oral dose of the compound of Formula I-11 (50, 100, or 200 mg liquid formulation respectively) or placebo for 7 days. A daily oral dose of the compound of Formula I-11 or placebo in participants in Part 2, Cohort 4 (350 mg liquid formulation) was planned for 14 days but was discontinued early in all subjects, either by the Investigator because of AEs, or by the Sponsor. A decision was made by the Sponsor to discontinue dosing of the entire cohort based on the frequency of AEs and laboratory abnormalities after Day 9. […] Safety was evaluated by a Safety Review Committee prior to escalation to the next dose level cohort. […]

[3] = test system: healthy male volunteers and healthy postmenopausal female volunteers; experiment: Pharmacodynamics: serum cholesterol, LDL and HDL cholesterol by standard clinical laboratory tests
Text: as §1, §2, §3
Pharmacodynamic endpoints: Protocol-specified endpoints were assessed at baseline and regularly throughout the study period. These assessments included serum cholesterol, LDL, and HDL cholesterol. Measurements of all pharmacodynamic end points were made using standard clinical laboratory tests.

[4] = repeated oral administration, all MAD cohorts (1-5), Day 7

## COc1cc2c(-c3cnn4cc(N5CCC(N6CCN(C)CC6)CC5)cnc34)ccnc2cc1F [Formula I-11]
[1]; after 7 daily oral doses (Part 2, MAD)
  dose level well tolerated: up to 200 mg
[1]; both, human, in vivo
  subjects with increases in ALT >2x ULN: 3 subjects
[1]; in vivo
  AEs reported and higher than placebo: headache, nausea, vomiting, diarrhea, gastroenteritis, chills, pyrexia, myalgia, decreased appetite, lymphopenia, neutropenia, and liver enzyme increases
  serious adverse events: no serious adverse events
  severity of the majority of AEs: mild or moderate in severity
[1]; male, human, in vivo
  participants who discontinued the study: 3 (9.4%) participants
[1]; single oral dose (Part 1, SAD)
  dose level well tolerated: up to 450 mg
[2]; both sexes, in vivo, human, oral
  half-life: 10 to 15 h
[2]; multiple doses from 50-200 mg
  Mean AUC, dose dependence: increased linearly with greater than dose-proportional increases
  Mean Cmax, dose dependence: increased linearly with greater than dose-proportional increases
[3]; all MAD cohorts, Day 7
  decrease in LDL compared with HDL cholesterol: greater decreases in LDL than HDL cholesterol
[3]; repeated oral administration, MAD Cohorts 1-4, across the one-week dosing period
  total cholesterol: decreases in total cholesterol
[3]; [4]
  HDL cholesterol: decreases in HDL cholesterol
  LDL cholesterol: decreases in LDL cholesterol
[3]; single oral administration, SAD cohorts, within 24 hours
  total cholesterol: decreases in total cholesterol

— US20230398118A1, “METHODS OF TREATING CARDIOVASCULAR-RELATED DISEASE” (Keros Therapeutics, Inc., priority 2020, published 2023)
